For one compound, LD50, logP and solubility results are on record in ChEMBL document CHEMBL3046816, “Development of a Novel Insecticide, Dinotefuran” (J Pestic Sci, 2005).

Series [1] can be described thus: Toxicity in female po dosed Mus musculus (mouse). To be noted: in vivo.
Series [2] is described as follows: Toxicity in male po dosed Mus musculus (mouse). To be noted: in vivo.
Series [3] in a line: Acute toxicity in Anas platyrhynchos (mallard duck) dosed with diet. To be noted: in vivo, po.
Series [4] in a line: Octanol-water partition coefficient, log Pow of the compound.
Series [5] can be described thus: Solubility in water at pH 7. To be noted: buffer.

Converted amounts (≈) assume the structure as drawn.

In general, logP refers to a log measure of how a compound divides between an organic and an aqueous phase. Low readings indicate lower lipophilicity, high ones higher lipophilicity. The solubility is the concentration that dissolves in the medium under given conditions. The low end stands for a poorly soluble substance, the high end for a readily soluble substance. Turning to `CN/C(=N/CC1CCOC1)N[N+](=O)[O-]` (stereo not given) [DINOTEFURAN], the LD50 in series [1] was 2280 mg/kg; in series [2], 2450 mg/kg; in series [3], > 1300 mg/kg. In addition, the logP in series [4] was -0.549. This compound also gave a solubility in series [5] of 40 mg/mL (≈ 198 mM).
